Measurements from ChEMBL document CHEMBL5154740, “Novel Aurora A and Protein Kinase C (α, β1, β2, and θ) Multitarget Inhibitors: Impact of Selenium Atoms on the Potency and Selectivity” (J Med Chem, 2022).

Assays:
[1] = biological target: Protein kinase C alpha type (Homo sapiens) (UniProt P17252); assay: Inhibition of PKCalpha (unknown origin) at 50 nM by Z'LYTE screening method relative to control
[2] = biological target: RAC-alpha serine/threonine-protein kinase (Homo sapiens) (UniProt P31749); assay: Inhibition of AKT1 (unknown origin) at 50 nM by Z'LYTE screening method relative to control
Chain of RAC-alpha serine/threonine-protein kinase (Homo sapiens) (P31749 whole entry): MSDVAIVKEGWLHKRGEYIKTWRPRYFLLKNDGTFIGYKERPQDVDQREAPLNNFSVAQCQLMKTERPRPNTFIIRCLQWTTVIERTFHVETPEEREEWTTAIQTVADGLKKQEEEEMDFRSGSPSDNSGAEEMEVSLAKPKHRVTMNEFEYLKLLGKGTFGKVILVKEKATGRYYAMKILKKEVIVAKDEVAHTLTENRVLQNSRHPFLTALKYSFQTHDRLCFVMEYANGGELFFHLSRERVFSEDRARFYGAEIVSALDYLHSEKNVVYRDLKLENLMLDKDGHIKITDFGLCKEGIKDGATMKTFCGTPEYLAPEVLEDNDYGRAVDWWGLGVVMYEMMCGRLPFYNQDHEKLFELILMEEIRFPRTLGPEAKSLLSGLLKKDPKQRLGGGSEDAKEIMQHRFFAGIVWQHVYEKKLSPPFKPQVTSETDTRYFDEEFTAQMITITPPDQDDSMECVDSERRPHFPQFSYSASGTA

Homo sapiens = species on record: Homo sapiens; assay: Inhibition of CDK1/Cyclin B (unknown origin) at 50 nM by Z'LYTE screening method relative to control
[3] = biological target: Serine/threonine-protein kinase mTOR (Homo sapiens) (UniProt P42345); assay: Inhibition of FRAP1 (unknown origin) at 50 nM by Z'LYTE screening method relative to control
[4] = biological target: Mitogen-activated protein kinase 11 (Homo sapiens) (UniProt Q15759); assay: Inhibition of MAPK11 (unknown origin) at 50 nM by Z'LYTE screening method relative to control
Chain of Mitogen-activated protein kinase 11 (Homo sapiens) (Q15759 whole entry): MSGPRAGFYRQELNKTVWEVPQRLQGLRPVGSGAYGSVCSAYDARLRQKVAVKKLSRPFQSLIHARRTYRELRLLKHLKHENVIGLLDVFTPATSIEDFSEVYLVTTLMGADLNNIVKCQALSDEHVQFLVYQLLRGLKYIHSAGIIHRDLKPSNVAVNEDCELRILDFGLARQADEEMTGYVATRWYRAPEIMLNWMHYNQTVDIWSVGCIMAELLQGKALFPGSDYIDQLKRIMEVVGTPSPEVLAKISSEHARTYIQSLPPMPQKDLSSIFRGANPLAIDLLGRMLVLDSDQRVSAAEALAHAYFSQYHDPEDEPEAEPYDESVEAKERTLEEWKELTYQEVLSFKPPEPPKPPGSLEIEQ

[5] = biological target: Vascular endothelial growth factor receptor 1 (Homo sapiens) (UniProt P17948); assay: Inhibition of FLT1/VEGFR1(unknown origin) at 50 nM by Z'LYTE screening method relative to control
[6] = biological target: Focal adhesion kinase 1 (Homo sapiens) (UniProt Q05397); assay: Inhibition of FAK (unknown origin) at 50 nM by Z'LYTE screening method relative to control
Chain of Focal adhesion kinase 1 (Homo sapiens) (Q05397 2-1052 limits assumed): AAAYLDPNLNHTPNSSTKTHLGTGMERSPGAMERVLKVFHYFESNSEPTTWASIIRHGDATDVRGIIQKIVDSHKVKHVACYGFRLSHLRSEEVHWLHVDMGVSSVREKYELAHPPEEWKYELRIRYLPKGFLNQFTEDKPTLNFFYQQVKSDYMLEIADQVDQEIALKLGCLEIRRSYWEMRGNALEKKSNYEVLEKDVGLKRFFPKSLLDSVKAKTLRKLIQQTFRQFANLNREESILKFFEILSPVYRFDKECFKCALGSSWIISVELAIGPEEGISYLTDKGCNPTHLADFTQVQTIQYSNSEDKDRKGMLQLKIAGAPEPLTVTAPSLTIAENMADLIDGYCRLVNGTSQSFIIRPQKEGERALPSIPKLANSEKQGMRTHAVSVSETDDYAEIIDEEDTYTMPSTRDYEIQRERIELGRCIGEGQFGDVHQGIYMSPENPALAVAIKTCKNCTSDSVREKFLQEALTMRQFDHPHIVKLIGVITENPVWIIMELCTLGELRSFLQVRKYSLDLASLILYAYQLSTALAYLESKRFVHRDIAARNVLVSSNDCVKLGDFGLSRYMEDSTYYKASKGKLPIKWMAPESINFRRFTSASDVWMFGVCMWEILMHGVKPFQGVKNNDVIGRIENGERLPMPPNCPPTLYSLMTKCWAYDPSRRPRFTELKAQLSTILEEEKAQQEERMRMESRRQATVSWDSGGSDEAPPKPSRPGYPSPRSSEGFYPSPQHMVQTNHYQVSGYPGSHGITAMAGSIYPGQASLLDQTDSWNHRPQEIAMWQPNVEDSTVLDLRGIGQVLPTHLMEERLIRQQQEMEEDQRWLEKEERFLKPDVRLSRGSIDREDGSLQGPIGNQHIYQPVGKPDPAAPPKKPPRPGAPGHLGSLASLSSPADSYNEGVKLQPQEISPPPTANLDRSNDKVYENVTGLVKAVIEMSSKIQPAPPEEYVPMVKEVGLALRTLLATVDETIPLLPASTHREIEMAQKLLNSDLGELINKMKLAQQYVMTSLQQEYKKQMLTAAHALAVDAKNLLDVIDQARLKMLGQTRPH

[7] = biological target: DNA-dependent protein kinase catalytic subunit (Homo sapiens) (UniProt P78527); assay: Inhibition of DNA-PK (unknown origin) at 50 nM by Z'LYTE screening method relative to control
[8] = biological target: Protein kinase C delta type (Homo sapiens) (UniProt Q05655); assay: Inhibition of PKCdelta (unknown origin) at 50 nM by Z'LYTE screening method relative to control
Chain of Protein kinase C delta type (Homo sapiens) (Q05655 whole entry, looked up): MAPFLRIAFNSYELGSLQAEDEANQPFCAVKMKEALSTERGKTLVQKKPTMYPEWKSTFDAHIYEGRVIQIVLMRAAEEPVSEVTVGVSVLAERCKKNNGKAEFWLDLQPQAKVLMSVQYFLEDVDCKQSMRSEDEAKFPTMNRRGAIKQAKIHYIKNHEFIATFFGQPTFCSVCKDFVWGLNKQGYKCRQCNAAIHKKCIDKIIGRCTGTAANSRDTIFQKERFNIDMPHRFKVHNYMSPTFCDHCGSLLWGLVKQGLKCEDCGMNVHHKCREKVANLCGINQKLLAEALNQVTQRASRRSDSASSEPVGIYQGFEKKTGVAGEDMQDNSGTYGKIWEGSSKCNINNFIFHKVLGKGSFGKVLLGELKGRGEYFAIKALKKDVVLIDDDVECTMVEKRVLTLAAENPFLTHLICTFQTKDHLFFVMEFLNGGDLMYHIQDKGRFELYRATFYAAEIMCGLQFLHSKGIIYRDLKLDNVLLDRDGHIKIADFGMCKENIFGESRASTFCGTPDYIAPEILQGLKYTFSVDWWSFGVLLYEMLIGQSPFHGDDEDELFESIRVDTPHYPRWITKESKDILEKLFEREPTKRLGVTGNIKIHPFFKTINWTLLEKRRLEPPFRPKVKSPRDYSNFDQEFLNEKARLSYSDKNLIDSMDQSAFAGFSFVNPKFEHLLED

[9] = biological target: T1, Protein kinase C zeta type (Homo sapiens) (UniProt Q05513); assay: Inhibition of PKCzeta (unknown origin) at 50 nM by Z'LYTE screening method relative to control
T1 sequence (whole entry): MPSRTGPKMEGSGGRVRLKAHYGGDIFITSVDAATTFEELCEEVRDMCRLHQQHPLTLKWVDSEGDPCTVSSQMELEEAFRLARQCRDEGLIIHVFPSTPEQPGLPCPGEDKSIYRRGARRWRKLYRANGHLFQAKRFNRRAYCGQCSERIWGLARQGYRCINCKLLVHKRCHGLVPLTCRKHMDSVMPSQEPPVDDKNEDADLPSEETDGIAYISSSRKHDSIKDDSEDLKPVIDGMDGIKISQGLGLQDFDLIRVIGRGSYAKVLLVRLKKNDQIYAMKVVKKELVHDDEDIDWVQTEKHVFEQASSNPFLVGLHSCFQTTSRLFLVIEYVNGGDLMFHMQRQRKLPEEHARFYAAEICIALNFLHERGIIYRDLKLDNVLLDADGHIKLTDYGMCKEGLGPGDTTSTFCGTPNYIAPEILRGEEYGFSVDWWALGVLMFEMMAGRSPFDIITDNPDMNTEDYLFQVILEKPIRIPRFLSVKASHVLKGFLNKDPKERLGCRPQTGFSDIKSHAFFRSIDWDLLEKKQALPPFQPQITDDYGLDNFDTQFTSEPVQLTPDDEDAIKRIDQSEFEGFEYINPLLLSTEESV

[10] = biological target: Ribosomal protein S6 kinase alpha-1 (Homo sapiens) (UniProt Q15418); assay: Inhibition of RPS6KA1 (unknown origin) at 50 nM by Z'LYTE screening method relative to control
4T1 = assay: Cytotoxicity against mouse 4T1 cells assessed as reduction in cell viability incubated for 96 hrs by MTT assay; assay type: functional, cell-based; conditions: 4T1, 96 h
[11] = biological target: Tyrosine-protein kinase ABL1 (Homo sapiens) (UniProt P00519); assay: Inhibition of ABL1 (unknown origin) at 50 nM by Z'LYTE screening method relative to control
Chain of Tyrosine-protein kinase ABL1 (Homo sapiens) (P00519 whole entry): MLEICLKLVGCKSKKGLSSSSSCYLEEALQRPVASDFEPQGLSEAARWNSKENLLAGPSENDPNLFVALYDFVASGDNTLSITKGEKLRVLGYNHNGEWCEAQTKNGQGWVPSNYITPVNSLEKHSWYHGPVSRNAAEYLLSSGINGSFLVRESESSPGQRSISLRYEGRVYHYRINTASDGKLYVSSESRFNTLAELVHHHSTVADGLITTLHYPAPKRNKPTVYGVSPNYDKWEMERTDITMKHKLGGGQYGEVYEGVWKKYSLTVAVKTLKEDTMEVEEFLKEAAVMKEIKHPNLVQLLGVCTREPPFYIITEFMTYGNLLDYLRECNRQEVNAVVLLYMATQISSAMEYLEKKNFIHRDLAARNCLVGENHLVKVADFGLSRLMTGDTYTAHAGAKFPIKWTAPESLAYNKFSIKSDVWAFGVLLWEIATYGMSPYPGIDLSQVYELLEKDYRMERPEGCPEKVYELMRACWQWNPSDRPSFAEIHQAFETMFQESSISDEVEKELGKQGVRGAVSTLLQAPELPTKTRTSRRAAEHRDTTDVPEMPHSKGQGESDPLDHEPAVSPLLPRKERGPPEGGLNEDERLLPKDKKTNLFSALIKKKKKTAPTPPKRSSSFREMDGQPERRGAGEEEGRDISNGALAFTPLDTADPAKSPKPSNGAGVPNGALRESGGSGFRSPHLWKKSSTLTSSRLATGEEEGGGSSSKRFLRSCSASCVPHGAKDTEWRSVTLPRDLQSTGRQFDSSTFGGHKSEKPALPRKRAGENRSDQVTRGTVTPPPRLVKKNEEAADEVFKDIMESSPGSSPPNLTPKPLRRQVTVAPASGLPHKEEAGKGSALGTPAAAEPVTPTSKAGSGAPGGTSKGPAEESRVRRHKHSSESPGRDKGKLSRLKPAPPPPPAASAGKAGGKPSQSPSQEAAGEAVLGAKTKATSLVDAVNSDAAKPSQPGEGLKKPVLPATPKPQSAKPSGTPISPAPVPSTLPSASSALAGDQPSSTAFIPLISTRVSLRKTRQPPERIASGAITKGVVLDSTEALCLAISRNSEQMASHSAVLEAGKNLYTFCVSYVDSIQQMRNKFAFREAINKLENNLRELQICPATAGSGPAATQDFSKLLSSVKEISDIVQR

[12] = biological target: Fibroblast growth factor receptor 1 (Homo sapiens) (UniProt P11362); assay: Inhibition of FGFR1 (unknown origin) at 50 nM by Z'LYTE screening method relative to control
[13] = biological target: T2, Serine/threonine-protein kinase Chk1 (Homo sapiens) (UniProt O14757); assay: Inhibition of CHK1 (unknown origin) at 50 nM by Z'LYTE screening method relative to control
T2 sequence (whole entry): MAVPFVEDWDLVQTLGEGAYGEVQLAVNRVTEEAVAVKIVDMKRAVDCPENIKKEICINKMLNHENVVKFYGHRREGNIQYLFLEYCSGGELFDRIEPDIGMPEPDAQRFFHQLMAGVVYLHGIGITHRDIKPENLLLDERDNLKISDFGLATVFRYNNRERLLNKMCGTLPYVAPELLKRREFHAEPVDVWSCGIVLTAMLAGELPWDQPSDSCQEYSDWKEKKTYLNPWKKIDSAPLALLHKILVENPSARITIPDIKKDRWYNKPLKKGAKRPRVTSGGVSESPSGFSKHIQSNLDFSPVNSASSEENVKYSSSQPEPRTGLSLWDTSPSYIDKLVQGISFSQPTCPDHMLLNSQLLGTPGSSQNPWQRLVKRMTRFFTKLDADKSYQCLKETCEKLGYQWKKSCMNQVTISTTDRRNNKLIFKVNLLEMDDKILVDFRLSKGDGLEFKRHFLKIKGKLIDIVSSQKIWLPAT

[14] = biological target: T3, TGF-beta receptor type-1 (Homo sapiens) (UniProt P36897); assay: Inhibition of TGFBR1 (unknown origin) at 50 nM by Z'LYTE screening method relative to control
T3 sequence (whole entry): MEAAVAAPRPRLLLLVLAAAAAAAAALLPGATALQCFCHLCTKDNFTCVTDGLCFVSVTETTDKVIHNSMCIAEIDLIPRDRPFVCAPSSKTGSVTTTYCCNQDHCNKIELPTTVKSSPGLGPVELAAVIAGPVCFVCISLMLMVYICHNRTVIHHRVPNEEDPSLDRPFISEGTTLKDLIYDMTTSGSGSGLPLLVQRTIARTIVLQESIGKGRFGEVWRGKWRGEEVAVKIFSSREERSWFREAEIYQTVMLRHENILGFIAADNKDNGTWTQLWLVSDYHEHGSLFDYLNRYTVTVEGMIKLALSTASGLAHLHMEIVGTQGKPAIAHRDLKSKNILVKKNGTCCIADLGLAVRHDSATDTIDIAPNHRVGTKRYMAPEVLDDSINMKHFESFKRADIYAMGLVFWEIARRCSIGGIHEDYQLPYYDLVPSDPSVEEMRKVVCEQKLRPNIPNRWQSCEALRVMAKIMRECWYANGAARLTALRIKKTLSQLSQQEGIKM

[15] = biological target: 3-phosphoinositide-dependent protein kinase 1 (Homo sapiens) (UniProt O15530); assay: Inhibition of PDK1 (unknown origin) at 50 nM by Z'LYTE screening method relative to control
Chain of 3-phosphoinositide-dependent protein kinase 1 (Homo sapiens) (O15530 whole entry, looked up): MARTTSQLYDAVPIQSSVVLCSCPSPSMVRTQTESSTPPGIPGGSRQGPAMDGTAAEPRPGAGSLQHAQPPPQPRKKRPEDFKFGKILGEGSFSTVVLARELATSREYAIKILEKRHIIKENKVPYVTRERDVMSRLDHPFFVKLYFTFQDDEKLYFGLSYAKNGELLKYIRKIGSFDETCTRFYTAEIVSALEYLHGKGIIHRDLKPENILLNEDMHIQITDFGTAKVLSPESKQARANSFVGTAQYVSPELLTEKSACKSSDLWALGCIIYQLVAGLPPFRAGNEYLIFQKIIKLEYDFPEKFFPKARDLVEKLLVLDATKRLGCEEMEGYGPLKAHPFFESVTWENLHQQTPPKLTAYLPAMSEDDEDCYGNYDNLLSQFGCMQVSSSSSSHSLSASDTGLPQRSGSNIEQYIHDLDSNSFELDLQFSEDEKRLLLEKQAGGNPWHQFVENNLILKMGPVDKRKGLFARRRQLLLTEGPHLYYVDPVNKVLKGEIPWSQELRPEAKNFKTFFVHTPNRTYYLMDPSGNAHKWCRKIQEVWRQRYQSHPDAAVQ

[16] = biological target: Calcium/calmodulin-dependent protein kinase type 1D (Homo sapiens) (UniProt Q8IU85); assay: Inhibition of CAMK1 delta (unknown origin) at 50 nM by Z'LYTE screening method relative to control
Chain of Calcium/calmodulin-dependent protein kinase type 1D (Homo sapiens) (Q8IU85 whole entry, looked up): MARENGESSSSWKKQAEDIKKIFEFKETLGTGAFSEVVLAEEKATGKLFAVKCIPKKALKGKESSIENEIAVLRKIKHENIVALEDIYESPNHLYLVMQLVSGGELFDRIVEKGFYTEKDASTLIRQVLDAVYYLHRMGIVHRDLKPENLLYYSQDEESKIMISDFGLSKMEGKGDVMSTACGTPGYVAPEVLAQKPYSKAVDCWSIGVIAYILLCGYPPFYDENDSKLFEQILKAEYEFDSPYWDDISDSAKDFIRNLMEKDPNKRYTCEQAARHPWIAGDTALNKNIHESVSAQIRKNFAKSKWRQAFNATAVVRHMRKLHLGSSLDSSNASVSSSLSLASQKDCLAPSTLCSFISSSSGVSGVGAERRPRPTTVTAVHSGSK

Row | SMILES | inhibition [1] [%] | inhibition [2] [%] | inhibition (Homo sapiens) [%] | inhibition [3] [%] | inhibition [4] [%] | inhibition [5] [%] | inhibition [6] [%] | inhibition [7] [%] | inhibition [8] [%] | inhibition [9] [%] | inhibition [10] [%] | IC50 (4T1) [µM] | inhibition [11] [%] | inhibition [12] [%] | inhibition [13] [%] | inhibition [14] [%] | inhibition [15] [%] | inhibition [16] [%]
1 | O=C1c2ccccc2CN1c1nc(NC2CCCC2)c2nc[nH]c2n1 | 0 | 1 | 0 | 2 | 0 | 1 | 0 | 0 | 0 | 6 | 1 | 16.7 | 1 | 0 | – | – | – | –
2 | O=c1c2ccccc2[se]n1-c1nc(N[C@H]2CC[Se]C2)c2nc[nH]c2n1 | 100 | 0 | 0 | 0 | 9 | 0 | 0 | 0 | 0 | 12 | 5 | 0.8 | 1 | 0 | 4 | 0 | 0 | 5
3 | O=c1c2ccccc2[se]n1-c1nc(N[C@H]2CCOC2)c2nc[nH]c2n1 | 91 | 1 | 1 | 1 | 3 | 0 | 0 | 0 | 0 | 2 | 5 | 1.8 | 8 | 0 | – | – | – | –
4 | O=C1c2ccccc2CN1c1nc(N[C@H]2CC[Se]C2)c2nc[nH]c2n1 | 3 | 1 | 0 | 2 | 3 | 1 | 0 | 0 | 0 | 6 | 0 | 27.2 | 0 | 0 | – | – | – | –
5 | C[C@@H]1[C@H]2C[C@@H](C[C@H]1Nc1nc(-n3[se]c4ccccc4c3=O)nc3[nH]cnc13)C2(C)C | 10 | 0 | 1 | 1 | 4 | 1 | 0 | 0 | 0 | 7 | 0 | 33.6 | 1 | 0 | – | – | – | –
6 | O=c1c2ccccc2[se]n1-c1nc(NC2CCCCC2)c2nc[nH]c2n1 | 68 | 2 | 0 | 0 | 3 | 2 | 0 | 0 | 0 | 9 | 2 | 8.1 | 1 | 0 | 0 | 11 | 0 | 1
7 | O=c1c2ccccc2[se]n1-c1nc(N[C@@H]2C[C@H]3CC[C@@H]2C3)c2nc[nH]c2n1 | 8 | 0 | 0 | 0 | 4 | 1 | 0 | 0 | 0 | 7 | 0 | 31.8 | 2 | 0 | – | – | – | –
8 | CCCNc1nc(-n2[se]c3ccccc3c2=O)nc2[nH]cnc12 | 17 | 2 | 1 | 0 | 4 | 0 | 0 | 0 | 0 | 3 | 0 | 11.3 | 0 | 0 | – | – | – | –
9 | CCN(CC)CCCC(C)Nc1nc(N2Cc3ccccc3C2=O)nc2[nH]cnc12 (stereo not given) | 3 | 2 | 1 | 0 | 3 | 2 | 0 | 0 | 0 | 7 | 0 | 13.3 | 1 | 0 | – | – | – | –
10 | CCN(CC)CCCC(C)Nc1nc(-n2[se]c3ccccc3c2=O)nc2[nH]cnc12 (stereo not given) | 18 | 9 | 0 | 2 | 3 | 1 | 4 | 0 | 6 | 9 | 0 | 15.2 | 11 | 0 | – | – | – | –
11 | O=c1c2ccccc2[se]n1-c1nc(Nc2ccccc2)c2nc[nH]c2n1 | 18 | 2 | 0 | 0 | 2 | 1 | 0 | 0 | 0 | 4 | 0 | 15.2 | 0 | 0 | – | – | – | –
12 | O=C1c2ccccc2CN1c1nc(NC2CCCCC2)c2nc[nH]c2n1 | 14 | 2 | 0 | 0 | 1 | 0 | 0 | 0 | 0 | 9 | 2 | 24.8 | 0 | 0 | 0 | 3 | 0 | 0
